In the Bradley open melting point set (2014):
Several values for one entry are separate records, joined by “and”; a condition that tells them apart may be missing. Equal entries are not always repeated.

SMILES	melting point
Nc1ccc(OCCCCCN2C(=O)c3ccccc3C2=O)cc1 [amphotalide]	113 °C
CC(=O)OC1CCC2C3CCC4CC=CCC4(C)C3CCC12C (configuration not stated) [androst-2-en-17-yl acetate]	94 °C
CC12CCC3C(C(=O)CC4CC(=O)CCC43C)C1CCC2=O (configuration not stated) [androstane-3,7,17-trione]	232 °C
CC12CCC3C(CCC4CC(=O)CCC43C)C1CCC2=O (configuration not stated) [androstane-3,17-dione]	132 °C
Nc1ccccc1 [aniline] [listing 1 of 2 here]	-6 °C
Nc1ccccc1 [aniline] [listing 2 of 2 here]	-6 °C (4×) and -6.2 °C (2×)
Nc1ccccc1C(=O)OCC=Cc1ccccc1 [anthranilic acid cinnamyl ester]	65 °C
CCCC1C(=O)N2C(N(C)C)=Nc3ccc(C)cc3N2C1=O (configuration not stated) [apazone]	228 °C
C=CCC1(C(C)C)C(=O)NC(=O)NC1=O [aprobarbital]	143 °C
CCNc1nc(Cl)nc(NC(C)C)n1 [atrazine]	175 °C and 177 °C
N(=N/c1ccccc1)c2ccccc2 [azobenzene]	69 °C
O=C(O)C=Cc1ccco1 [b-2-Furylacrylic Acid]	133 °C
CCC1(CC)C(=O)NC(=O)NC1=O [barbital]	190 °C
O=C(CCCN1CCC(n2c(=O)[nH]c3ccccc32)CC1)c1ccc(F)cc1 [benperidol] [listing 1 of 2 here]	171 °C
O=C(CCCN1CCC(n2c(=O)[nH]c3ccccc32)CC1)c1ccc(F)cc1 [benperidol] [listing 2 of 2 here]	170 °C
O=Cc1ccccc1 [benzaldehyde]	-56.5 °C and -55.6 °C
CCCCc1ccc(NC(=O)c2ccc(OC)cc2)cc1 [benzamide, N-(4-butylphenyl)-4-methoxy-]	147 °C
O=S(=O)(Cl)c1ccccc1 [benzenesulfonyl chloride]	15 °C
c1ccc2[nH]cnc2c1 [benzimidazole]	170 °C and 172 °C
c1ccc2c(c1)cc1ccc3cccc4ccc2c1c34 [benzo(a)pyrene]	179 °C
c1ccc2c(c1)cc1ccc3cccc4ccc2c1c34 [benzo[a]pyrene]	176 °C and 179 °C
OB(O)c1cc2ccccc2s1 [benzo[b]thiophene-2-boronic acid]	255 °C
[O-][n+]1onc2ccccc21 [benzofuroxan]	69 °C
O=C(Cl)c1nc2ccccc2s1 [benzothiazole-2-carbonyl chloride]	114 °C
c1ccc2scnc2c1 [benzothiazole]	2 °C
ClC(Cl)(Cl)c1ccccc1 [benzotrichloride]	-4 °C
O=C(Cl)OCc1ccccc1 [benzyl chloroformate]	-20 °C

Second part, the compound after the results:

melting point	SMILES
157 °C	O=C1c2ccccc2Cc2ccccc21 [anthrone]
28 °C	ClCCOc1ccccc1 [b-chlorophenetole]
166 °C	O=C(NCCCCc1ccccc1)c1cc([N+](=O)[O-])cc([N+](=O)[O-])c1 [benzamide, 3,5-dinitro-N-(4-phenylbutyl)-]
103 °C	NNS(=O)(=O)c1ccccc1 [benzenesulfonyl hydrazide]
156 °C	O=C1CCC(c2ccccc2)(C2CCN(Cc3ccccc3)CC2)C(=O)N1 (configuration not stated) [benzetimide]
12 °C	NC(c1ccccc1)c1ccccc1 [benzhydrylamine]
95 °C	O=C(C(=O)c1ccccc1)c1ccccc1 [benzil]
194 °C	O=C(O)c1cc2ccccc2o1 [benzo[b]furan-2-carboxylic acid]
122 °C	O=C(O)c1ccccc1 [benzoic acid]
123 °C	O=C(O)c1ccccc1 [benzoic_acid]
177 °C	OC(c1ccccc1)(c1ccccc1)C(O)(c1ccccc1)c1ccccc1 [benzopinacol]
149 °C	O=S(=O)(Cc1ccccc1)c1ccccc1 [benzyl phenyl sulfone]
-15 °C	OCc1ccccc1 [benzyl_alcohol]
3 °C	c1ccc(COCc2ccccc2)cc1 [benzyl_ether]
149 °C	NC(=O)NCc1ccccc1 [benzylurea]
